Laboratory results taken from patent publication US20250368651A1 (priority 2022, published 2025).
Read-outs that look alike come from different tables or passages of the source.

Columns and labels:
[1] = molecular target: COVID RNA (SARS-CoV-2 RNA SL5 per FIG. 8); test: FP binding, Kd for COVID RNA; conditions: Table 3
[2] = molecular target: DNA Seq10 (UAAAGGAAGGU as deoxyribonucleotides); test: FP binding assay, DNA Seq10; conditions: Seq 10; 0.5 μM SMN-C2
Description: (§1) All synthetic DNA and RNA oligomers were purchased from Integrated DNA Technologies and reconstituted in nuclease-free water (Invitrogen #AM9932) at 1 mM. The concentration of the oligonucleotides at ˜0.1 mM was calibrated with the A260 value measured by a NanoDrop ND-1000 (Thermo, Waltham, MA, USA) and the predicted extinction coefficient (http://www.oligoevaluator.com) using Lamber-Beer's Law. The risdiplam analogues (1 mM in DMSO) were diluted in 2× assay buffer (40 mM HEPES, 200 mM NaCl for RNA; 40 mM HEPES, 200 mM NaCl, 1 mM MgCl2 for DNA) to make a 1 μM 2× working solution.
(§2) A 1:2 dilution series (8 points) of each oligonucleotide was prepared in 20-30 μL water to desired concentrations (i.e., 1-128 μM). […] For fluorescence polarization measurement, 20 μL of the above 1× working solution was transferred into a 384-well, black, F-bottom microplates (Greiner Bio-One) in duplicates or triplicates. The plate was equilibrated at room temperature for 5 min before being read using a microplate reader (SYNERGY H1, BioTek; Excitation/Emission=360/460 nm) at 25° C. […] The mixture was then transferred into a microplate (20 μL each well) in duplicates for fluorescence polarization readout. The experimental data were analyzed using Prism 8 software (Graphpad Software, San Diego, CA, USA).

DNA Seq12 TGAAAGAAGGT = test: FP binding assay, DNA Seq12; conditions: Seq 12 TGAAAGAAGGT; 0.5 μM SMN-C2
Description: as §1, §2

DNA S24 […] = test: FP binding assay, 18-nt DNA S24
Description: as §1, §2

DNA Seq9 TTAAGGAAGTT = test: FP binding assay, DNA Seq9; conditions: Seq 9 TTAAGGAAGTT; 0.5 μM SMN-C2
Description: as §1, §2

DNA S3 […] = test: FP binding assay, 18-nt DNA S3
Description: as §1, §2

DNA S2 […] = test: FP binding assay, 18-nt DNA S2
Description: as §1, §2

DNA S10 […] = test: FP binding assay, 18-nt DNA S10
Description: as §1, §2

DNA Seq17 TGAAGGAAGAT = test: FP binding assay, DNA Seq17; conditions: Seq 17 TGAAGGAAGAT; 0.5 μM SMN-C2
Description: as §1, §2

DNA S19 […] = test: FP binding assay, 18-nt DNA S19
Description: as §1, §2

SMN2 exon 7 splicing = test: Cell-based SMN2 splicing assay in 293T cells (minigene); design: species or system human; conditions: Homo sapiens, HEK-293T
DNA S11 […] = test: FP binding assay, 18-nt DNA S11
Description: as §1, §2

5′-biotinylated RNA Seq4 = test: Surface plasmon resonance (SPR) assay, RNA Seq4; assay type: binding; conditions: footnote b: SPR assay for RNA Seq4
Description: SPR experiments were performed on a Biacore T200 (GE Healthcare) instrument at 25° C. using streptavidin pre-coated SA sensor chips (GE Healthcare). The running buffer composed of 10 mM HEPES, 100 mM NaCl, 0.05% Tween 20 (w/v), 5 mM EDTA, 0.1% (v/v) DMSO at pH 6.8 was prepared freshly, filtered through the […] PVDF membrane prior to use. 5′-biotinylated RNA Seq4 was purchased from GenScript and dissolved in nuclease-free water to a concentration of 100 μM. For immobilization of the biotinylated RNA, the sensor chip was firstly conditioned with 3 consecutive 1 min injections of high salt solution (50 mM NaOH, 1M NaCl) at a flow rate of […]. Next, the biotinylated RNA was diluted 1000× in running buffer (100 nM) and applied over the streptavidin sensor chip surface at a flow rate of 10 μL/min to achieve immobilization level of about 800 RU. Finally, alkyne-PEG-biotin (50 μM in running buffer) was injected (1 min, […]) to block remaining streptavidin surface binding sites. The kinetics analysis was performed following the BiaControl Software Wizard Kinetics protocol. […] All monitored resonance signals were subtracted with signals from a non-binding reference channel. Kinetic values (Kd, ka, kd) were calculated using the BiaEvaluation Software Binding Affinity protocol with 1:1 fitting. […]

DNA S14 […] = test: FP binding assay, 18-nt DNA S14
Description: as §1, §2

in vitro = conditions: human
DNA S5 […] = test: FP binding assay, 18-nt DNA S5
Description: as §1, §2

DNA Seq2 d(GAAGGAAGG) = test: FP binding assay, 9-nt DNA Seq2
Description: as §1, §2

DNA Seq15 TGAAGGATGGT = test: FP binding assay, DNA Seq15; conditions: Seq 15 TGAAGGATGGT; 0.5 μM SMN-C2
Description: as §1, §2

DNA S7 […] = test: FP binding assay, 18-nt DNA S7
Description: as §1, §2

CCN1CCN(c2ccc3cc(-c4cn5cc(C)nc(C)c5n4)c(=O)oc3c2)C[C@@H]1C [SMN-C2, (S)-3-(6,8-dimethylimidazo[1,2-a]pyrazin-2-yl)-7-(4-ethyl-3-methylpiperazin-1-yl)-2H-chromen-2-one]
Kd [1]: 1.6 ± 0.4 µM
Kd [2]: > 100 µM
Kd (DNA Seq12 TGAAAGAAGGT): 17.6 ± 3.4 µM
Kd (DNA S24 […]): 36.8 ± 11.4 µM
Kd (DNA Seq9 TTAAGGAAGTT): > 100 µM
Kd (DNA S3 […]): 21.7 ± 2.7 µM
Kd (DNA S2 […]): 20.2 ± 1.7 µM
Kd (DNA S10 […]): 26.4 ± 2.2 µM
Kd (DNA Seq17 TGAAGGAAGAT): 56.4 ± 10.4 µM
Kd (DNA S19 […]): 21 ± 1.1 µM
EC50 (SMN2 exon 7 splicing; Table 3, read-out: SMN2 Splicing EC50): 0.0635 ± 0.0296 µM
EC50 (SMN2 exon 7 splicing; cell-based SMN2 splicing assay in 293T cells, read-out: SMN2 EC50): 0.26 ± 0.13 µM
Kd (DNA S11 […]): 26.3 ± 1.2 µM
Kd (5′-biotinylated RNA Seq4): 5.4 µM
Kd (DNA S14 […]): 19.5 ± 2.3 µM
CC50 (in vitro): > 30 µM
Kd (DNA S5 […]): 42.3 ± 4.2 µM
Kd (DNA Seq2 d(GAAGGAAGG)): 34.3 ± 9.6 µM
Kd (DNA Seq15 TGAAGGATGGT): 41.1 ± 4.4 µM
Kd (DNA S7 […]): 17.3 ± 1.7 µM
